The inhibition is the share of the control response that was lost under treatment.

Two compounds from US20020094524A1, “Compositions and methods for inhibiting HIV infection” (priority 2000, published 2002) can be followed below.

In test [1] the test system is CCR5. Description: Macrophage receptor expression by flow cytometry. The test is classed as cell-based, human. The method, then: The cells were removed from the culture plate and then resuspended in 100 μl of phosphate-buffered saline (PBS). After incubation with 20 μl of either anti-CCR5-FITC or anti-CXCR4-FITC or anti-CD4-FITC or anti-CD14-FITC for 45 min at 4° C., the cells were washed twice with PBS and fixed with 1% paraformaldehyde in PBS. Fluorescein-conjugated control antibodies were isotype-matched IgG. Fluorescence was analyzed on an EPICS-Elite flow cytometer (Beckman-Coulter Electronics, Hialeah, Fla.).
A general note: Flow cytometry measures light scatter and fluorescence of single cells or particles in a stream.

The test system of test [2] is HIV Bal strain. Description: HIV RT activity in HIV Bal strain-infected MDM. In kind it is cell-based, HIV-1. As to conditions: for RT activity during HIV Bal infection of MDM: 10^−7−10^−6M (FIG. 18). The procedure:
(§1) The cells were also incubated with SP and/or anti-SP antibody. In this case, SP was incubated with (1:1000 dilution in 10% FCS DMEM) or without anti-SP antibody at room temperature for 10 min and then the mixture was added to the cell cultures for 2 h. When the cells were treated with the combination of CP-96,345 and SP, or CP-96,345, SP and anti-SP antibody, CP-96,345 was incubated with the cell culture for 10 min and then SP was added to the MDM or CP-96,345, SP and anti-SP (1:1000 in 10% FCS DMEM) were incubated for 10 min at room temperature and the mixture was incubated with the MDM for 2 h before infection with HIV. Untreated MDM served as controls. The cells were treated prior to, during, and throughout the infection.
HIV Infection: After 2 h incubation with or without the reagents described above, the cells were infected with equal amounts of cell-free HIV based on p24 antigen content (20 ng/10^6 cells) overnight, and then washed to remove unbound virus. Fresh media containing SP and/or CP-96,345 or anti-SP antibody were added to the MDM as described above. The culture media and the reagents were replaced twice weekly. The culture supernatants were harvested for HIV reverse transcriptase (RT) activity determinations. After HIV infection, the MDM were incubated for 8 to 12 days. At the termination of the experiments, cellular RNA was extracted for assessment of HIV gag gene expression using RT-PCR or real time RT-PCR assays.
The HIV RT activity assay was carried out based on the technique of Willey et al. (30) with modification (22).

Test [3] relates to R5 strains (Bal, ADA, CSF-6 and BL-6). Description: HIV RT activity in MDM infected with R5 strains. The test is classed as cell-based. The method, then:
(§2) Based upon their differential use of the major HIV co-receptors, HIV isolates have been referred to as R5, X4 or R5X4 strains, respectively (29). The M-tropic (macrophage-tropic) R5 prototype strains (Bal and ADA), dual tropic strain (89.6) and X4 primary isolate (UG024), were obtained from the NIH AIDS Reagent Program. Primary M-tropic isolates (BL-6 and CSF-6) were isolated from the blood and cerebrospinal fluid cells, respectively, of a subject with AIDS.
as §1, with “infection. […]” for “infection.”

The test system of test [4] is ADA Env-pseudotyped HIV. In words: Pseudotype reporter virus entry assay, ADA Env. In kind it is cell-based. The method, then:
Pseudotype reporter virus entry assay: Recombinant luciferase-encoding HIV virions pseudotyped with Env from the M-tropic ADA (CCR5-dependent) and amphitropic murine leukemia virus (MLV) (CCR5-independent) were used to study HIV infection of MDM incubated with or without CP-96,345 or R-113281. The Env-deleted luciferase reporter plasmid PNL-Luc-E-R+ (kindly provided by N. Landau) was cotransfected into 293T cells along with plasmids encoding the ADA or MLV Env genes as previously described (31). Supernatants were collected 48 h later, assayed for p24^Gag antigen content, and frozen at −80° C. MDM (2.5×10^5 cells/well, in 48-well plates) were incubated overnight with or without CP-96,345 or R-113281 and then infected using 20 ng of p24^Gag antigen equivalent of each pseudotype HIV per well, in the presence of polybrene (7.5 μg/ml). At 72 h postinfection, the cells were lysed in 150 μl of 0.5% Triton-X-100 in PBS. Lysate (50 μl) was mixed with an equal volume of luciferase substrate (Promega, […].) and luciferase activity was determined in a microtiter plate luminometer (Dynex Technologies, Chantilly, Va.). The results were expressed as relative light units (RLU) in CP-96,345-treated or R-113281-treated and infected MDM as a percentage of that in untreated and infected MDM.

Test [5] deals with R5X4 strain (89.6). In words: HIV RT activity in MDM infected with R5X4 strain. The test is classed as cell-based. The method, then:
as §2
as §1, with “infection. […]” for “infection.”

Setting [6] is: R-113281 10^−6 M, 8 days after infection (FIG. 14).
The mark [7] stands for this setting: CP-96,345 10^−7M, 8 days after infection (FIG. 6).

Take `COc1cc(C(=O)N2CCO[C@](CCN3CCC4(CC3)c3ccccc3C[S@+]4[O-])(c3ccc(Cl)c(Cl)c3)C2)cc(OC)c1OC.Cl` [R-113281]: the “CCR5 protein expression (percentage CCR5 positive cells, flow cytometry)” value in test [1] (R-113281 10^−6M, 24 hours (FIG. 15B)) is on record as “inhibited”. In test [2], the “RT activity during HIV Bal infection of MDM” value is “inhibitory effects”. The “HIV RT activity in Bal-infected MDM” value in test [2] (day 8 post-infection, indicated concentrations (FIG. 12)) is “significantly reduced”. For the same compound, the “replication of R5 strains (RT activity)” value in test [3] (setting [6]) is given as “inhibited”. Besides, the “M-tropic ADA Env-pseudotyped HIV infection of MDM (luciferase activity)” value in test [4] (R-113281 10^−7 and 10^−6 overnight (FIG. 13)) is reported as “inhibited”. The “replication of R5X4 strain (RT activity)” value in test [5] (setting [6]) is “inhibited to a lesser extent”.
On to `COc1ccccc1CN[C@H]1C2CCN(CC2)[C@H]1C(c1ccccc1)c1ccccc1` [CP-96,345, 2S, 3S)-cis-2-(diphenylmethyl)-N-[(2-methoxyphenyl)-methyl]-1-azabicyclo[[2.2.2]octan-3-amine], for which, in test [1] (overnight/24 h, among CD4, CCR5, CXCR4 and CD14 only CCR5 changed (FIG. 8)), the “CCR5 receptor expression on MDM (percentage positive cells)” value is listed as “down-regulated”. Also, the “viral replication by HIV RT activity vs HIV infection control” value in test [2] (10^−7M, 8 days after infection (FIG. 4)) is recorded as “inhibited”. Moreover, in test [2], the “RT activity during HIV Bal infection of MDM” value is recorded as “inhibitory effects”. Besides, the “HIV replication relative to HIV infection control” value in test [2] (CP-96,345 10^−6M and/or anti-SP antibody 1:1000, 12 days (FIG. 5)) is recorded as “down-regulated HIV replication to a level that was even lower than that of the HIV infection control”. The inhibition at 1 µM in test [2] (Human immunodeficiency virus 1, BAL, 192 h, 10^−6M, day 8 after HIV infection (FIG. 1B)) is 54%. Also, the inhibition at 0.1 µM in test [2] (Human immunodeficiency virus 1, BAL, 192 h, 10^−7M, day 8 after HIV infection (FIG. 1B)) was found to be 43%. The inhibition at 0.01 µM in test [2] (Human immunodeficiency virus 1, BAL, 192 h, 10^−8M, day 8 after HIV infection (FIG. 1B)) came out at 1%. In addition, the “effect on SP-enhanced HIV replication in MDM (RT activity and gag mRNA)” value in test [2] (SP 10^−6M, CP-96,345 10^−6M, anti-SP antibody 1:1000, 12 days (FIG. 5)) was “abrogated”. In addition, the “replication of R5 strains (RT activity)” value in test [3] (setting [7]) was “inhibited”. The “M-tropic ADA Env-pseudotyped HIV infection of MDM (luciferase activity)” value in test [4] (CP-96,345 10^−8 and 10^−7M overnight (FIG. 10)) was “inhibited”. In addition, the “replication of R5X4 strain 89.6 (RT activity)” value in test [5] (setting [7]) is recorded as “inhibited to a lesser extent”.
